Data published in ChEMBL document CHEMBL1142609, “An apigenin-derived xanthine oxidase inhibitor from Palhinhaea cernua” (J Nat Prod, 2006).

Legend:
[1] = target: T1, Xanthine dehydrogenase/oxidase (Homo sapiens, UniProt P47989); assay: Inhibition of xanthine oxidase
[2] = target: T1, Xanthine dehydrogenase/oxidase; assay: Inhibition of xanthine oxidase by competitive Lineweaver-Burke plot
[3] = target: T1, Xanthine dehydrogenase/oxidase; assay: Inhibition of xanthine oxidase by noncompetitive Lineweaver-Burke plot; conditions: read-out: Kinact

T1 sequence (P47989 whole entry): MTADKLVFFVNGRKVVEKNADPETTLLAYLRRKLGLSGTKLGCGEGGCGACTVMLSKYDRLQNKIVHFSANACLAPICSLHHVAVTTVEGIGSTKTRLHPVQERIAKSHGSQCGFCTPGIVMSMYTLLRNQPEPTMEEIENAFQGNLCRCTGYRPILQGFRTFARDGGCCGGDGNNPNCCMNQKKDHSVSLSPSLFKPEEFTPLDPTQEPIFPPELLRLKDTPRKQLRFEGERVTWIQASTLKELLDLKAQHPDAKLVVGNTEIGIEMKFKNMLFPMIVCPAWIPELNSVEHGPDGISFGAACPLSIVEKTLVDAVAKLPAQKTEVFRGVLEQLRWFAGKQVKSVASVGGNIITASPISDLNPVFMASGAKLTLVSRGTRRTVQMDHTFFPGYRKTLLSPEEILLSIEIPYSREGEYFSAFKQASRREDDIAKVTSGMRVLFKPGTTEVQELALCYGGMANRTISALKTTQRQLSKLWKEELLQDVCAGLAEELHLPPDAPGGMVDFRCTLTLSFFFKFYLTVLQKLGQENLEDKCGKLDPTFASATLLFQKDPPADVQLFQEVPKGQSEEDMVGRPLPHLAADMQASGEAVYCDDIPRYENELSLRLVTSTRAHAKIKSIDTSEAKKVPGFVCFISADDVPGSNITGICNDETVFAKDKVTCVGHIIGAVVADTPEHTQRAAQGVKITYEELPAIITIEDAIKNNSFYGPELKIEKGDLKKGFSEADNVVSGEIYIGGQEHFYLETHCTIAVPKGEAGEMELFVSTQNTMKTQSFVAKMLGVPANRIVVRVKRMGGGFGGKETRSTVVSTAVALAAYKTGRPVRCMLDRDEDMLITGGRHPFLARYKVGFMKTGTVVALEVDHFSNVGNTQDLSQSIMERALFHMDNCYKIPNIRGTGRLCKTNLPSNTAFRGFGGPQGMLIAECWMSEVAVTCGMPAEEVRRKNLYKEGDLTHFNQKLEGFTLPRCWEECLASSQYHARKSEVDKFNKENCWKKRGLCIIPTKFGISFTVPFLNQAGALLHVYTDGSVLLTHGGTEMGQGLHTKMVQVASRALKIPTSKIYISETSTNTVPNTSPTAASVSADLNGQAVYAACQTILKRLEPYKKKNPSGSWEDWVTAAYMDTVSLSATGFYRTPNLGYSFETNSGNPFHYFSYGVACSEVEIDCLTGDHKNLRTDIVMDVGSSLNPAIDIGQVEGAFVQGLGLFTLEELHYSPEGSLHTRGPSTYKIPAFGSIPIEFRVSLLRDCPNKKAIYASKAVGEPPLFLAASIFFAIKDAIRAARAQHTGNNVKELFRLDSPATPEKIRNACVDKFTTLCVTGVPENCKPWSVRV

IC50 [1] [µM] | Ki [2] [µM] | Ki [3] [µM] | Compound
24 | 14.3 | 93.7 | O=C(/C=C/c1ccc(O)cc1)O[C@@H]1[C@@H](Oc2ccc(-c3cc(=O)c4c(O)cc(O)cc4o3)cc2)O[C@@H](CO)[C@H](O)[C@H]1O
> 100 |  |  | O=C(/C=C/c1ccc(O)cc1)OC[C@@H]1O[C@H](Oc2ccc(-c3cc(=O)c4c(O)cc(O)cc4o3)cc2)[C@@H](OC(=O)/C=C/c2ccc(O)cc2)[C@H](O)[C@H]1O
> 100 |  |  | O=C(/C=C/c1ccc(O)cc1)OC[C@@H]1O[C@H](Oc2ccc(-c3cc(=O)c4c(O)cc(O)cc4o3)cc2)[C@@H](O)[C@H](O)[C@H]1O
